Assays:
[1] = target: Syk(h) (Homo sapiens, UniProt P43405); test: Kinase Profiler; assay type: biochemical
Method: (§1) The kinase profiler was performed by the company Eurofins (Discovery, Panlab and Cerep).

[2] = target: EphA2(h) (Homo sapiens, UniProt P29317); test: Kinase Profiler; assay type: biochemical
Method: (§2) Blood cell counts, kinase profiler, safety screen, bacterial cytotoxicity, Ames, micronucleus assays were performed by the company Eurofins (France). The kinase profiler was performed by the company Eurofins (Discovery, Panlab and Cerep).

[3] = target: CaMKIIγ(h) (Homo sapiens, UniProt Q13555); test: Kinase Profiler; assay type: biochemical
Method: as §1

[4] = target: MRCKα(h) (Homo sapiens, UniProt Q5VT25); test: Kinase Profiler; assay type: biochemical
Method: as §1

[5] = target: AAK1(h) (Homo sapiens, UniProt Q2M2I8); test: Kinase Profiler; assay type: biochemical
Method: as §1

[6] = target: Met(M1268T)(h) (Homo sapiens, UniProt P08581, M1250T); test: Kinase Profiler; assay type: biochemical
Method: as §1

[7] = target: cKit(h) (Homo sapiens, UniProt P10721); test: Kinase Profiler; assay type: biochemical
Method: as §2

[8] = target: MST2(h) (Homo sapiens, UniProt Q13188); test: Kinase Profiler; assay type: biochemical
Method: as §2

[9] = system: Glutamate, NMDA, Phencyclidine; test: Safety screen; assay type: binding, rat
Method: as §2

[10] = target: Src(1-530)(h) (Homo sapiens, UniProt P12931); test: Kinase Profiler; assay type: biochemical
Method: as §1

[11] = target: PI3KC2a(h) (Homo sapiens, UniProt O00443); test: Kinase Profiler; assay type: biochemical
Method: as §1

[12] = target: CDK5/p25(h) (Homo sapiens, UniProt Q00535); test: Kinase Profiler; assay type: biochemical
Method: as §2

[13] = target: Serotonin (5-Hydroxytryptamine) 5-HT1A (Homo sapiens, UniProt P08908); test: Safety screen; assay type: binding
Method: as §2

[14] = target: PI3K (p110a(E542K)/p85a)(h) (Homo sapiens, UniProt P42336, E542K); test: Kinase Profiler; assay type: biochemical
Method: as §1

[15] = target: IGF-1R(h) (Homo sapiens, UniProt P08069); test: Kinase Profiler; assay type: biochemical
Method: as §2

[16] = target: PhKγ2(h) (Homo sapiens, UniProt P15735); test: Kinase Profiler; assay type: biochemical
Method: as §2

[17] = target: cKit(V560G)(h) (Homo sapiens, UniProt P10721, V560G); test: Kinase Profiler; assay type: biochemical
Method: as §2

[18] = target: PKCγ(h) (Homo sapiens, UniProt P05129); test: Kinase Profiler; assay type: biochemical
Method: as §1

[19] = target: PI3K (p120g)(h) (Homo sapiens, UniProt P48736); test: Kinase Profiler; assay type: biochemical
Method: as §2

[20] = target: ALK1(h) (Homo sapiens, UniProt P37023); test: Kinase Profiler; assay type: biochemical
Method: as §1

[21] = target: MLK3(h) (Homo sapiens, UniProt Q16584); test: Kinase Profiler; assay type: biochemical
Method: as §2

[22] = target: JAK1(h) (Homo sapiens, UniProt P23458); test: Kinase Profiler; assay type: biochemical
Method: as §1

[23] = target: Pyk2(h) (Homo sapiens, UniProt Q14289); test: Kinase Profiler; assay type: biochemical
Method: as §1

[24] = target: EphB2(h) (Homo sapiens, UniProt P29323); test: Kinase Profiler; assay type: biochemical
Method: as §2

[25] = target: DRAK2(h) (Homo sapiens, UniProt O94768); test: Kinase Profiler; assay type: biochemical
Method: as §2

[26] = target: PDHK4(h) (Homo sapiens, UniProt Q16654); test: Kinase Profiler; assay type: biochemical
Method: as §2

[27] = target: BMPR2(h) (Homo sapiens, UniProt Q13873); test: Kinase Profiler; assay type: biochemical
Method: as §2

[28] = target: MRCKβ(h) (Homo sapiens, UniProt Q9Y5S2); test: Kinase Profiler; assay type: biochemical
Method: as §1

[29] = target: ALK2(h) (Homo sapiens, UniProt Q04771); test: Kinase Profiler; assay type: biochemical
Method: as §1

[30] = target: MARK4(h) (Homo sapiens, UniProt Q96L34); test: Kinase Profiler; assay type: biochemical
Method: as §1

[31] = target: GSK3β(h) (Homo sapiens, UniProt P49841); test: Kinase Profiler; assay type: biochemical
Method: as §2

[32] = target: GRK1(h) (Homo sapiens, UniProt Q15835); test: Kinase Profiler; assay type: biochemical
Method: as §2

[33] = target: Plk3(h) (Homo sapiens, UniProt Q9H4B4); test: Kinase Profiler; assay type: biochemical
Method: as §2

[34] = target: Peptidase, CTSG (Cathepsin G) (Homo sapiens, UniProt P08311); test: Safety screen; assay type: biochemical
Method: Blood cell counts, kinase profiler, safety screen, bacterial cytotoxicity, Ames, micronucleus assays were performed by the company Eurofins (France).

[35] = target: cKit(D816V)(h) (Homo sapiens, UniProt P10721, D816V); test: Kinase Profiler; assay type: biochemical
Method: as §2

[36] = target: TAO1(h) (Homo sapiens, UniProt Q7L7X3); test: Kinase Profiler; assay type: biochemical
Method: as §2

[37] = target: GCK(h) (Homo sapiens, UniProt Q12851); test: Kinase Profiler; assay type: biochemical
Method: as §1

[38] = target: PAR-1Bα(h) (Homo sapiens, UniProt Q7KZI7); test: Kinase Profiler; assay type: biochemical
Method: as §1

[39] = target: Angiotensin AT1 (Homo sapiens, UniProt P30556); test: Safety screen; assay type: binding
Method: as §2

[40] = target: PI3KC2g(h) (Homo sapiens, UniProt O75747); test: Kinase Profiler; assay type: biochemical
Method: as §1

[41] = target: Rsk1(r) (Rattus norvegicus, UniProt Q63531); test: Kinase Profiler; assay type: biochemical
Method: as §1

Chain of MRCKα(h) (Q5VT25 whole entry): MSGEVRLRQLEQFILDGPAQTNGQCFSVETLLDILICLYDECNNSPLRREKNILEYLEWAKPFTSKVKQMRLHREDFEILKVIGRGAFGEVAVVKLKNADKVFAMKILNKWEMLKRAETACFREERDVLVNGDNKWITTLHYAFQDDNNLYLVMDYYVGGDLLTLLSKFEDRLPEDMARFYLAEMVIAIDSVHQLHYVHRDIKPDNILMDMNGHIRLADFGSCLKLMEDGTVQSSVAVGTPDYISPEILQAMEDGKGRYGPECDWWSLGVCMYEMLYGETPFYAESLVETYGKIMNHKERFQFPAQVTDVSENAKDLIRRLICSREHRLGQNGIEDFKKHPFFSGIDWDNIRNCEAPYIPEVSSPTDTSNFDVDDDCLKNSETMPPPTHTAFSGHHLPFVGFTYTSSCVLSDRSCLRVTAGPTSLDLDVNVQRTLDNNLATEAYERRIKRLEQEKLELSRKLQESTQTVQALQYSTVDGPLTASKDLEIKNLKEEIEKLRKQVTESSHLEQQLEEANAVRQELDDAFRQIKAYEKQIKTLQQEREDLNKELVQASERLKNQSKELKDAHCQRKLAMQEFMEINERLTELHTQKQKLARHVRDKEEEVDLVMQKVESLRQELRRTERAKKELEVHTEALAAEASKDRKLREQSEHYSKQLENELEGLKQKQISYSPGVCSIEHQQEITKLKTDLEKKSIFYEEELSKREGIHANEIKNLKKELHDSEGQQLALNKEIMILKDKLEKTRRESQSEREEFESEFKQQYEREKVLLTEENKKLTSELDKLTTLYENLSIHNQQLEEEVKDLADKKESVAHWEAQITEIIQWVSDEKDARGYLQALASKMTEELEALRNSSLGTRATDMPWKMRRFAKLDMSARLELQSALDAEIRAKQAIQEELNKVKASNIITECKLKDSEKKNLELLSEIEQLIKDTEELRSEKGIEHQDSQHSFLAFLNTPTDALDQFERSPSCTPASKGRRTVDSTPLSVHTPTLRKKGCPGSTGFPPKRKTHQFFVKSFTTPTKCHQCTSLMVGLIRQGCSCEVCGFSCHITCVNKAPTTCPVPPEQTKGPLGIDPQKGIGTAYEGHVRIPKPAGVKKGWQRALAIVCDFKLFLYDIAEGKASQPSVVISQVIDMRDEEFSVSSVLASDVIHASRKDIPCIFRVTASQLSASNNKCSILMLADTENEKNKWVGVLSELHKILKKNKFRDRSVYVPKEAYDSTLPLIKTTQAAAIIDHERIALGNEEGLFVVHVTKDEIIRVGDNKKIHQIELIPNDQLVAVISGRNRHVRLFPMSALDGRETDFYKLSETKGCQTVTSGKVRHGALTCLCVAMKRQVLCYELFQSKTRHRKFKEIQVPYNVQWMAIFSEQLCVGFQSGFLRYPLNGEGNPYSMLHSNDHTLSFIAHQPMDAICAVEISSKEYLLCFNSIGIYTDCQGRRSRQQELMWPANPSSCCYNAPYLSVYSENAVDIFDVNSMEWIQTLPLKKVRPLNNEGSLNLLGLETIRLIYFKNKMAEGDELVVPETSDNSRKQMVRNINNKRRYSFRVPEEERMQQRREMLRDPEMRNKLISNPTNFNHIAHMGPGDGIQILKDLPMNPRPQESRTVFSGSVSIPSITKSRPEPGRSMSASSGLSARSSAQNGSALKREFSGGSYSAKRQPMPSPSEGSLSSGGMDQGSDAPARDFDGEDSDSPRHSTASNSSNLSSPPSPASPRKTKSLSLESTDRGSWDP
Chain of CDK5/p25(h) (Q00535 whole entry): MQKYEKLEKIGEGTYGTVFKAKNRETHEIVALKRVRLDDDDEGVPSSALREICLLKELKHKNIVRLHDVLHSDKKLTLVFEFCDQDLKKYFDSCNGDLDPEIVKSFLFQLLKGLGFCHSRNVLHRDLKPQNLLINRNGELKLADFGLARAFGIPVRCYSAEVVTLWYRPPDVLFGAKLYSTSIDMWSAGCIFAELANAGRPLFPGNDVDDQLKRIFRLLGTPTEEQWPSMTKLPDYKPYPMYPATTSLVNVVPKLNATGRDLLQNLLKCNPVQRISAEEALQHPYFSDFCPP
Chain of CDK5/p25(h) (Q15078 99-307 partner limits assumed): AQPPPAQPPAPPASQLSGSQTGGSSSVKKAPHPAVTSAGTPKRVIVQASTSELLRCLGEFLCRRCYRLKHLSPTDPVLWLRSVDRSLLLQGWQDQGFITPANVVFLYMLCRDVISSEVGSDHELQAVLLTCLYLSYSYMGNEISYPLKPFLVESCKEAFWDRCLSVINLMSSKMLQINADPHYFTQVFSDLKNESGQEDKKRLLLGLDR
Chain of Peptidase, CTSG (Cathepsin G) (P08311 21-255): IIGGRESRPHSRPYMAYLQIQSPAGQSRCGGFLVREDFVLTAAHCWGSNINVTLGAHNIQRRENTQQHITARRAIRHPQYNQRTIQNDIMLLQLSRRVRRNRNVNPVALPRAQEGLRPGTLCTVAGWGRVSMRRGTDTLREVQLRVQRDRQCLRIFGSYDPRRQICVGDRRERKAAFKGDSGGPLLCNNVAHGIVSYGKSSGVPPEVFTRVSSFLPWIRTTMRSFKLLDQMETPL
Chain of BMPR2(h) (Q13873 27-1038): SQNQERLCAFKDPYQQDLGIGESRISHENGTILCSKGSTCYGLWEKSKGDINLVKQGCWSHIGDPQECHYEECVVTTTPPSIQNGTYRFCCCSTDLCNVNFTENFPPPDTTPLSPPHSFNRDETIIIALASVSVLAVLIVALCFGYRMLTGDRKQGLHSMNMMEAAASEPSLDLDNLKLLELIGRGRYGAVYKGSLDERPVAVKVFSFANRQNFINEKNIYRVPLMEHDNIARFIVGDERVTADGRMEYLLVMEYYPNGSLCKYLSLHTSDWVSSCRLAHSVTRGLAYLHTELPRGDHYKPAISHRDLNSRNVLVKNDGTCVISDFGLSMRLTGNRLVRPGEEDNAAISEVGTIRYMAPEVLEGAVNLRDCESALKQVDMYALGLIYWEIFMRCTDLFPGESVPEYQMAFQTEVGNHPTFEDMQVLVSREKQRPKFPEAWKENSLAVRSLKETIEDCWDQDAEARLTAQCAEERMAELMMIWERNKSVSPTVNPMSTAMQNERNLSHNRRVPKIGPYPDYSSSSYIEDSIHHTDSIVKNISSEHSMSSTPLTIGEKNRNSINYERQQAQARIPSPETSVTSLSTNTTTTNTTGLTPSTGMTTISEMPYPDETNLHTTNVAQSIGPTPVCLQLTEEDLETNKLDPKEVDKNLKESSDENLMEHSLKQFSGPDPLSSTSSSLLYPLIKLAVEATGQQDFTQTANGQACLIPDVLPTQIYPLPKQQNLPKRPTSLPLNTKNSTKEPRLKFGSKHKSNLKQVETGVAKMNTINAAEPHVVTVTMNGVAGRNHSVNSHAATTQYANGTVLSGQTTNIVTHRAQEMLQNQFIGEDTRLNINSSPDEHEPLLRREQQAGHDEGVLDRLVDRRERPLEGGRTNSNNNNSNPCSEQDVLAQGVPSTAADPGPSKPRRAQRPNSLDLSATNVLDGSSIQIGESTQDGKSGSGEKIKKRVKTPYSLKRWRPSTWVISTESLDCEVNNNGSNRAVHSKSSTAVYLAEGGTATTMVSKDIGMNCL
Chain of GSK3β(h) (P49841 whole entry): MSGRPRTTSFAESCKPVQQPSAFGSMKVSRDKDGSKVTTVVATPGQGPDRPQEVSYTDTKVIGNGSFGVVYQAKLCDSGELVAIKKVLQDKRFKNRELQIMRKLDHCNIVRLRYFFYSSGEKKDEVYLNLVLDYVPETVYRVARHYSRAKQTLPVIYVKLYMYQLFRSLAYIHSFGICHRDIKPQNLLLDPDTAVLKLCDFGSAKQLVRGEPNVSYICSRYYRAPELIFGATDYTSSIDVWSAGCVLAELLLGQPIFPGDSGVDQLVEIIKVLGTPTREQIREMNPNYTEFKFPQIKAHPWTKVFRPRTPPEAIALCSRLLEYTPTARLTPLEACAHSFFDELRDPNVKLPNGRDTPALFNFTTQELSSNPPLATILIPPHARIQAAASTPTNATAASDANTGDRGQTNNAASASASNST
Chain of CaMKIIγ(h) (Q13555 whole entry): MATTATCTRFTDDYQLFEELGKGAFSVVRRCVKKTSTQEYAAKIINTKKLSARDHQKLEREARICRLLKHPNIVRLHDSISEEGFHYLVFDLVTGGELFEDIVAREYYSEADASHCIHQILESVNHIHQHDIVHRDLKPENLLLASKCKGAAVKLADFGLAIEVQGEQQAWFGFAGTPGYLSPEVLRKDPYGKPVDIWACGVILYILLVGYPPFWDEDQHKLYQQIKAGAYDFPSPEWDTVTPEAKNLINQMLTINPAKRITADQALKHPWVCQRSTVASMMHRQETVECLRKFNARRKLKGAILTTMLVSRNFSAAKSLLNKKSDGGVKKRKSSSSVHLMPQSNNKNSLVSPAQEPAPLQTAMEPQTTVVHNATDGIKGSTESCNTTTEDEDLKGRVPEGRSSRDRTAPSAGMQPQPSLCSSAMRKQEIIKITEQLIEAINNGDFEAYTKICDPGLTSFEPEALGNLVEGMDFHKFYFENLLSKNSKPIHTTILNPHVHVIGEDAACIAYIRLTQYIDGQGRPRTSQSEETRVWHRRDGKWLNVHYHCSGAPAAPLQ
Chain of MST2(h) (Q13188 whole entry): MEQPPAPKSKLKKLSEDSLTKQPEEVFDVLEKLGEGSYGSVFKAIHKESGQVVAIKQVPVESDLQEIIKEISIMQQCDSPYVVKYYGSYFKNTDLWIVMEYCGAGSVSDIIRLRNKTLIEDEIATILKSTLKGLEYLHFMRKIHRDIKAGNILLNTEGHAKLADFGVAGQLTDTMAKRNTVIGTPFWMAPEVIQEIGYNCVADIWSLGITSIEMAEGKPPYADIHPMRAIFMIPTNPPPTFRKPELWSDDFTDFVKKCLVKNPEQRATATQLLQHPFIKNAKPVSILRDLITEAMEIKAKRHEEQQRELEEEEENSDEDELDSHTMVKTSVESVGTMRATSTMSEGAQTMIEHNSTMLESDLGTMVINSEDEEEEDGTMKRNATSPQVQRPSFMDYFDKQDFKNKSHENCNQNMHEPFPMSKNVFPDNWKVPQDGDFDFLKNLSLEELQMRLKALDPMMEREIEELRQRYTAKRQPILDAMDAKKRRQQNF

With `COc1ccc(OC)c(NS(=O)(=O)c2ccc(NC(=O)CCSc3ccc(C)cc3)cc2)c1` [Compound A41] the “Activity(%)” value [1] was 91%, the “Activity(%)” value [2] was 98% and the “Activity(%)” value [3] was 92%. The “Activity(%)” value [4] was 109%, the “Activity(%)” value [5] was 105% and the “Activity(%)” value [6] was 108%. For the same molecule, the “Activity(%)” value [7] was 101%, the “Activity(%)” value [8] was 88% and the “% inh.” value [9] was -6%. The “Activity(%)” value [10] was 105%, the “Activity(%)” value [11] was 95% and the “Activity(%)” value [12] was 110%. For the same molecule, the “% inh.” value [13] was 6%, the “Activity(%)” value [14] was 105% and the “Activity(%)” value [15] was 100%. The “Activity(%)” value [16] was 98%, the “Activity(%)” value [17] was 115% and the “Activity(%)” value [18] was 112%. The “Activity(%)” value [19] was 104%, the “Activity(%)” value [20] was 102% and the “Activity(%)” value [21] was 115%. The “Activity(%)” value [22] was 99%, the “Activity(%)” value [23] was 92% and the “Activity(%)” value [24] was 97%. The “Activity(%)” value [25] was 90%, the “Activity(%)” value [26] was 93% and the “Activity(%)” value [27] was 100%. For the same molecule, the “Activity(%)” value [28] was 102%, the “Activity(%)” value [29] was 100% and the “Activity(%)” value [30] was 105%. The “Activity(%)” value [31] was 90%, the “Activity(%)” value [32] was 103% and the “Activity(%)” value [33] was 115%. The “% inh.” value [34] was -2%, the “Activity(%)” value [35] was 88% and the “Activity(%)” value [36] was 118%. For the same molecule, the “Activity(%)” value [37] was 114%, the “Activity(%)” value [38] was 111% and the “% inh.” value [39] was 17%. The “Activity(%)” value [40] was 114% and the “Activity(%)” value [41] was 128%.
